In patent publication US20040072851A1, “Medicinal compositions for treating lower uropathy” (priority 2001, published 2004):
Where a name gives a salt, the structure may show the parent alone.

How the values were obtained:
neurogenic bladder = details: applicant's earlier filing PCT/JP99/03343; cited from earlier work
[1] = system: patients suffering from lower urinary tract symptoms; experiment: Clinical test to patients suffering from lower urinary tract symptoms (four-week test); format: in vivo, human; details: for Total score for subjective symptoms after the test: 0.2 mg capsule orally once daily after breakfast; for Changing Rate (%) of total score for subjective symptoms: 0.2 mg capsule orally once daily, after vs before the test
Experimental: A clinical test was carried out under the following conditions using the patients suffering from lower urinary tract symptoms. (cf. Chapter 1: Indexes for Evaluation of Prostatic Hypertrophy in “Guideline for Clinical Test for Urinary Disturbance” published by Iyaku Tosho Shuppan) Subjects: four patients diagnosed as lower urinary tract symptoms, i.e. urinary disturbance without clear organic or neurological abnormality in lower urinary tract (3 males and 1 female). Test drug and administering method: One capsule containing 0.2 mg of tamsulosin hydrochloride was orally administered once daily after breakfast. Test period: four weeks (28 days) Observed items: Evaluations and measurements were made for the following items before and after the administration. (1) Total Score for Subjective Symptoms Questioning was done to the patients for the following items and the total score was obtained. (2) QOL Index With regard to an index for quality of life (QOL), a questioning that “How do you think if the present urinary condition continues in future as well?” was done as a total diagnosis concerning the urinary disturbance and any of the following evaluations was collected.

[2] = system: patients suffering from lower urinary tract symptoms; experiment: Clinical test to patients suffering from lower urinary tract symptoms (twelve-week test); format: in vivo, human
Experimental: A clinical test was carried out under the following conditions using the patients suffering from lower urinary tract symptoms. Subjects: eighteen patients diagnosed as lower urinary tract symptoms, i.e. urinary disturbance without clear organic or neurological abnormality in lower urinary tract (15 males and 3 female, age: 57.2±14.2). Test drug and administering method: One capsule containing 0.2 mg of tamsulosin hydrochloride was orally administered once daily after breakfast for four weeks and, after that, the dose after 4 weeks was controlled in consideration of the following criterion, and the dose was orally administered once daily after breakfast. [table] Test period: twelve weeks (84 days)(4 weeks (28 days) for 8 males) Observed items: Evaluations and measurements were made for the following items before and after the administration. (1) Total Score for Subjective Symptoms Total scores for the following <1>˜<7>before and after the administration were obtained in the same way as in Test Example 1. <1>Feel of residual urine, <2>Urination within two hours, <3>Break of urinary stream, <4>Urgency, <5>Force of urinary stream, <6>Straining upon urination and <7>Frequency of urination at night. (2) QOL Index “How do you think if the present urinating state continues in future as well?” (3) Test on Functions <1>maximum urinary stream rate <2>average urinary stream rate

[3] = avg. of four patients, four weeks
[4] = Female (n = 3), after 4 week, 0.2 mg/day orally
[5] = Female (n = 3), after 12 week, 0.2 mg/day for 4 weeks, then 0.2 or 0.4 mg/day orally
[6] = Total (n = 10), after 12 week, 0.2 mg/day for 4 weeks, then 0.2 or 0.4 mg/day orally
[7] = Total (n = 18), after 4 week, 0.2 mg/day orally
[8] = male (n = 7), after 12 week, 0.2 mg/day for 4 weeks, then 0.2 or 0.4 mg/day orally
[9] = male (n = 15), after 4 week, 0.2 mg/day orally

CCOc1ccccc1OCCN[C@H](C)Cc1ccc(OC)c(S(N)(=O)=O)c1 [tamsulosin]
Clinical efficacy for the therapy of neurogenic bladder (neurogenic bladder): clinically effectively for the therapy of neurogenic bladder

CCOc1ccccc1OCCN[C@H](C)Cc1ccc(OC)c(S(N)(=O)=O)c1 [tamsulosin hydrochloride]
Total score for subjective symptoms after the test [1, 3]: 13.3 | Changing Rate (%) of total score for subjective symptoms [1, 3]: −40.8% | Improvement in QOL index ([1]; four patients, average, after vs before administration, four weeks): improvement of one point in average | QOL index, mean value after the administration ([1]; four patients, 0.2 mg orally once daily, four weeks, scale 0 (quite satisfactory) to 6 (quite unsatisfactory), before administration 4.8): 3.8 | Overall conclusion on efficacy (total score for subjective symptom, QOL index) ([1]; four-week test, 0.2 mg orally once daily): confirmed to be effective as a therapeutic agent for lower urinary tract symptoms | Total score for subjective symptoms after the test ([1]; patient four, four weeks): 13 | Changing Rate (%) of total score for subjective symptoms ([1]; patient four, four weeks): −48.0% | Total score for subjective symptoms after the test ([1]; patient one, four weeks): 11 | Changing Rate (%) of total score for subjective symptoms ([1]; patient one, four weeks): −26.7% | Total score for subjective symptoms after the test ([1]; patient three, four weeks): 20 | Changing Rate (%) of total score for subjective symptoms ([1]; patient three, four weeks): −23.1% | Total score for subjective symptoms after the test ([1]; patient two, four weeks): 9 | Changing Rate (%) of total score for subjective symptoms ([1]; patient two, four weeks): −65.4% | Changing Amt of Average urinary stream rate [2, 4]: +2.2 ± 1.8 ml/s | Changing Amt of Maximum urinary stream rate [2, 4]: +3.8 ± 1.9 ml/s | Changing Amt of QOL Index [2, 4]: −1.3 ± 1.2 | Changing Rate of Total score for subjective symptoms [2, 4]: −30.5 ± 16.9% | Changing Amt of Average urinary stream rate [2, 5]: +2.1 ± 2.8 ml/s | Changing Amt of Maximum urinary stream rate [2, 5]: +6.2 ± 6.0 ml/s | Changing Amt of QOL Index [2, 5]: −3.0 ± 1.7 | Changing Rate of Total score for subjective symptoms [2, 5]: −37.4 ± 26.8% | Changing Amt of Average urinary stream rate [2, 6]: +3.8 ± 2.5 ml/s | Changing Amt of Maximum urinary stream rate [2, 6]: +7.3 ± 4.6 ml/s | Changing Amt of QOL Index [2, 6]: −2.9 ± 1.7 | Changing Rate of Total score for subjective symptoms [2, 6]: −44.6 ± 32.1% | Changing Amt of Average urinary stream rate [2, 7]: +2.0 ± 3.3 ml/s | Changing Amt of Maximum urinary stream rate [2, 7]: +3.1 ± 6.7 ml/s | Changing Amt of QOL Index [2, 7]: −1.6 ± 1.7 | Changing Rate of Total score for subjective symptoms [2, 7]: −40.9 ± 25.2% | effective rate (Degree of Improvement as a whole is more than "Useful") ([2]; after 12 weeks, decided by Guideline for Clinical Test for Urinary Disturbance): 70.0% | Changing Amt of Average urinary stream rate [2, 8]: +4.6 ± 2.2 ml/s | Changing Amt of Maximum urinary stream rate [2, 8]: +7.8 ± 4.3 ml/s | Changing Amt of QOL Index [2, 8]: −2.9 ± 1.9 | Changing Rate of Total score for subjective symptoms [2, 8]: −47.0 ± 35.6% | Changing Amt of Average urinary stream rate [2, 9]: +1.9 ± 3.6 ml/s | Changing Amt of Maximum urinary stream rate [2, 9]: +2.9 ± 7.4 ml/s | Changing Amt of QOL Index [2, 9]: −1.6 ± 1.8 | Changing Rate of Total score for subjective symptoms [2, 9]: −43.0 ± 26.5% | Overall conclusion on efficacy (total score for subjective symptom, QOL index, test on functions) ([2]; twelve-week test): confirmed to be effective as a therapeutic agent for lower urinary tract symptoms
